Laboratory results taken from EP0023885A1, “Method for the introduction of an oxygen-containing functional group into ansamycines, compounds thus obtained, and pharmaceutical compositions containing them” (CIBA-GEIGY AG, priority 1979, dated 1981).

What was measured:
[1] = test system: grammpositive und grammnegative Kokken; assay: in vitro antibacterial activity against cocci; format: cell-based; details: at the lowest tested concentration (0,01 mcg/ml)
Description: (§1) Diese neuen Verbindungen zeichnen sich durch ihre wertvollen pharmakologischen Eigenschaften aus: so besitzen sie gemäss den Resultaten in vitro antibiotische, insbesondere antibakterielle Eigenschaften, wie z.B. einerseits gegen grammpositive und grammnegative Kokken, wie Staphylococcus aureus, Streptococcus pyogenes, Streptococcus pneumoniae, Neisseria meningitis, Neisseria gonorhoae (im getesteten Konzentrationsbereich 0,01 bis 8 mcg/ml), andererseits gegen grammnegative Stäbchenbakterien, wie Enterobacteriaceae, Pseudomonas aeruginosa, Haemophilus influenzae (im getesteten Konzentrationsbereich von 0,01 bis […]).

[2] = test system: grammnegative Stäbchenbakterien; assay: in vitro antibacterial activity against gram-negative rod bacteria; format: cell-based; details: at the lowest tested concentration (0,01 mg/ml)
Description: as §1

| Molecule | Hemmwirkung [1] | Hemmwirkung [2] |
| --- | --- | --- |
| COC1C=COC2(C)Oc3c(C)c(O)c4c(c3C2=O)C(=O)C(OC(C)=O)=C(NC(=O)C(C)=CC=CC(C)C(O)C(C)C(O)C(C)C(OC(C)=O)C1C)C4=O (stereo not shown) [3-Acetoxyrifamycin-S] | deutliche Hemmwirkung | deutliche Hemmwirkung |
| 3-Benzoyloxyrifamycin-S [3-Benzoylrifamycin-S] | deutliche Hemmwirkung | deutliche Hemmwirkung |
| 3-(2-Methoxyäthoxy)-rifamycin-S [3-(2-Methoxyäthyl)-rifamycin-S] | deutliche Hemmwirkung | deutliche Hemmwirkung |
| COC1C=COC2(C)Oc3c(C)c(O)c4c(c3C2=O)C(=O)C(Oc2ccccc2)=C(NC(=O)C(C)=CC=CC(C)C(O)C(C)C(O)C(C)C(OC(C)=O)C1C)C4=O (stereo not shown) [3-Phenoxyrifamycin-S] | deutliche Hemmwirkung | deutliche Hemmwirkung |
| COC1=C2NC(=O)C(C)=CC=CC(C)C(O)C(C)C(O)C(C)C(OC(C)=O)C(C)C(OC)C=COC3(C)Oc4c(C)c(O)c(c(c4C3=O)C1=O)C2=O (stereo not shown) [3-Methoxyrifamycin-S] | deutliche Hemmwirkung | deutliche Hemmwirkung |
